Values of other authors, collected in patent US9399044B2, “Antimicrobial cationic polyamines” (International Business Machines Corporation, priority 2014, dated 2016).

Tested on: mouse
Details: commercially available compounds, source NIH

In order of rising “Mouse Intravenous LD50” value:
1. CN1CCCC1c1cccnc1 (centres unmarked) [Nicotine]  0.3 mg/kg
2. CN(Cc1cnc2nc(N)nc(N)c2n1)c1ccc(C(=O)N[C@@H](CCC(=O)O)C(=O)O)cc1 [Methotrexate]  65 mg/kg
3. NNC(=O)c1ccncc1 [Isoniazid]  149 mg/kg
4. CC[C@@H](CO)NCCN[C@@H](CC)CO [Ethambutol]  240 mg/kg
5. CO[C@H]1/C=C/O[C@@]2(C)Oc3c(C)c(O)c4c(O)c(c(/C=N/N5CCN(C)CC5)c(O)c4c3C2=O)NC(=O)/C(C)=C\C=C\[C@H](C)[C@H](O)[C@@H](C)[C@@H](O)[C@@H](C)[C@H](OC(C)=O)[C@@H]1C [Rifampin]  260 mg/kg
